Measured values: patent publication US11160798B2, “Neuroprotective CB2 receptor agonists” (THE CLEVELAND CLINIC FOUNDATION, priority 2012, dated 2021)

How the values were obtained:
CB2 receptor = CB2 receptor expression in hippocampal CA1 area (immunostaining, immunoblotting); format: in vivo, rat; settings: Aβ1-40-injected rats
Experimental: (§1) Animals were divided into several groups (40-50 rats per group). The Aβ1-40 group received bilateral intracerebral microinjection of Aβ1-40 fibrils once and saline intraperitoneally (i.p.) daily for 14 days. The Aβ1-40+MDA7 group received bilateral intracerebral microinjection of Aβ1-40 fibrils once and 15 mg/kg MDA7 i.p. daily for 14 days. Other cohorts received smaller doses of MDA7 (5 mg/kg or 1.5 mg/kg) i.p. daily for 14 days to determine the dose-response characteristics for MDA7. In other groups, AM630 (a CB2 antagonist) 5 mg/kg i.p. was administered daily for 14 days either alone (Aβ1-40+AM630 group) or 15 min prior to MDA7 (15 mg/kg i.p.) administration (Aβ1-40+MDA7+AM630 group) to rats injected with β1-40 fibrils. MDA7 group and control group received bilateral intracerebral microinjection of artificial cerebrospinal fluid (130 mM NaCl, 2.6 mM KCl. 4.3 mM MgCl2 and 1.8 mM CaCl2) once and 15 mg/kg MDA7 or saline i.p. daily for 14 days, respectively. […]
Immunostaining. […] Three to six sections from each rat were randomly selected and were analyzed using Leica DMLB fluorescence microscope (Leica Microsystems Wetzlar GmbH, Germany) by one investigator, who was blinded to the origin of tissue being examined. Images were quantified using MCID Core software version 7.0 (InterFocus Imaging Ltd, Cambridge, England). […]

CA1 neurons [1] = test: Evoked EPSCs (basal glutamatergic strength) in hippocampal CA1 slices, whole-cell patch clamp; format: in vivo, rat
Experimental: as §1, with “fibrils.” for “fibrils. MDA7 group and control group received bilateral intracerebral microinjection of artificial cerebrospinal fluid (130 mM NaCl, 2.6 mM KCl. 4.3 mM MgCl2 and 1.8 mM CaCl2) once and 15 mg/kg MDA7 or saline i.p. daily for 14 days, respectively.”
(§2) Whole-cell patch clamp recordings in hippocampal slices. […] The series resistance was optimally compensated by ≥70% and constantly monitored throughout the experiments. […] Excitatory postsynaptic currents (EPSCs) were recorded in the CA1 area in the presence of GABAA antagonist bicuculline (30 μM). The evoked EPSCs were filtered at 2 kHz, digitized at 10 kHz, and acquired and analyzed using Axograph X software. The amplitude of EPSCs was monitored for a baseline period of at least 15 min. […]

CA1 neurons [2] = test: Long-term potentiation (LTP) in hippocampal CA1 slices; format: in vivo, rat; settings: for average LTP: Aβ+MDA7 group (15 mg/kg i.p. 14 days), n=9
Experimental: Animals were divided into several groups ([…]). The Aβ1-40 group received bilateral intracerebral microinjection of Aβ1-40 fibrils once and saline intraperitoneally (i.p.) daily for 14 days. The Aβ1-40+MDA7 group received bilateral intracerebral microinjection of Aβ1-40 fibrils once and 15 mg/kg MDA7 i.p. daily for 14 days. Other cohorts received smaller doses of MDA7 (5 mg/kg or 1.5 mg/kg) i.p. daily for 14 days to determine the dose-response characteristics for MDA7. In other groups, AM630 (a CB2 antagonist) 5 mg/kg i.p. was administered daily for 14 days either alone (Aβ1-40+AM630 group) or 15 min prior to MDA7 (15 mg/kg i.p.) administration (Aβ1-40+MDA7+AM630 group) to rats injected with β1-40 fibrils. MDA7 group and control group received bilateral intracerebral microinjection of artificial cerebrospinal fluid (130 mM NaCl, 2.6 mM KCl. 4.3 mM MgCl2 and 1.8 mM CaCl2) once and 15 mg/kg MDA7 or saline i.p. daily for 14 days, respectively. Intraperitoneal administration of AM630, MDA7 or saline started on the same day after intracerebral microinjection of Aβ1-40. All drugs were prepared coded. Decoding was performed at the end of all experiments.
Hippocampal slice preparation. Brain slices containing hippocampus were prepared. Brain slices used for electrophysiological recording were obtained from all rats (n=10-12 rats per group) that had been subjected to the Morris water maze test. All rats were anesthetized with pentobarbital and then euthanized by decapitation. […]
as §2

hCB1 = hCB1 (Homo sapiens, UniProt P21554); settings: cited from earlier work
Chain of hCB1 (P21554 whole entry): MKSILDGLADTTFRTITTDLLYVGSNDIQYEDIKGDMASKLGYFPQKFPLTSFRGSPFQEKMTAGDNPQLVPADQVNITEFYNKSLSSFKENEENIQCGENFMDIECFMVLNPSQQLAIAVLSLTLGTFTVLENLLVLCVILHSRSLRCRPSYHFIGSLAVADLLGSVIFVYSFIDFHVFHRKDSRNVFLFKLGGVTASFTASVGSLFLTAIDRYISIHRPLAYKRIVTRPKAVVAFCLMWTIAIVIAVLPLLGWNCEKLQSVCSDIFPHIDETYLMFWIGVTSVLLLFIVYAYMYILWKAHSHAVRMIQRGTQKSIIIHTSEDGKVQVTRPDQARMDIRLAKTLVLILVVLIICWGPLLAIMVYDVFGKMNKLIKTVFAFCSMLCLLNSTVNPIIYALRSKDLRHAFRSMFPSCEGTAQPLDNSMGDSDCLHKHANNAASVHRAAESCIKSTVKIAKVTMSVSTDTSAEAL

With `CC1(Cc2ccccc2)COc2cc(C(=O)N3CCCCC3)ccc21` (centres unmarked) [MDA7, 3-benzyl-3-methyl-2,3-dihydrobenzofuran-6-carboxylic acid-piperidine amide] the “CB2 receptor expression (immunoblotting)” value (CB2 receptor; 15 mg/kg i.p. daily for 14 days) was “significantly reversed”, the “CB2 expression (immunofluorescence)” value (CB2 receptor; 15 mg/kg i.p. for 14 days, vs saline) was “reduced CB2 expression” and the “amplitude of evoked EPSCs in CA1 neurons” value (CA1 neurons [1]; Aβ1-40-injected rats, 15 mg/kg i.p. for 14 days, all three stimulus intensities) was “restored”. For the same compound, the “basal glutamatergic strength, treatment alone” value (CA1 neurons [1]; MDA7 group (no Aβ1-40) vs control group) was “not different”, the “average LTP” value (CA1 neurons [2]; 30 min after induction) was 214.5±23.6% and the “average LTP” value (CA1 neurons [2]; 60 min after induction) was 195.7±21.8%. For the same compound, the “induction of LTP, treatment alone” value (CA1 neurons [2]; hippocampal slices of control rats (no Aβ1-40)) was “failed to significantly affect” and the “EC50 at hCB1” value (hCB1) was “not active”.
